Molecular target: catalytic domain of human Bub1 (amino acids 704-1085) (Homo sapiens (Human), UniProt O43683)
Assay: Bub1 kinase assay (TR-FRET)
Format: biochemical
Details: 10 μM ATP, 1 μM peptide substrate, recombinant catalytic domain of human Bub1, read-out: Bub1 kinase assay median IC50
Description: Bub1-inhibitory activities of compounds described in the present invention were quantified using a time-resolved fluorescence energy transfer (TR-FRET) kinase assay which measures phosphorylation of the synthetic peptide Biotin-Ahx-VLLPKKSFAEPG (C-terminus in amide form), purchased from e.g. Biosyntan (Berlin, Germany) by the (recombinant) catalytic domain of human Bub1 (amino acids 704-1085), expressed in Hi5 insect cells with an N-terminal His6-tag and purified by affinity- (Ni-NTA) and size exclusion chromatography.
In a typical assay 11 different concentrations of each compound (0.1 nM, 0.33 nM, 1.1 nM, 3.8 nM, 13 nM, 44 nM, 0.15 μM, 0.51 μM, 1.7 μM, 5.9 μM and 20 μM) were tested in duplicate within the same microtiter plate. To this end, 100-fold concentrated compound solutions (in DMSO) were previously prepared by serial dilution (1:3.4) of 2 mM stocks in a clear low volume 384-well source microtiter plate (Greiner Bio-One, Frickenhausen, Germany), from which 50 nl of compounds were transferred into a black low volume test microtiter plate from the same supplier. Subsequently, 2 μl of Bub1 (the final concentration of Bub1 was adjusted depending on the activity of the enzyme lot in order to be within the linear dynamic range of the assay: typically ˜200 ng/ml were used) in aqueous assay buffer [50 mM Tris/HCl pH 7.5, 10 mM magnesium chloride (MgCl2), 200 mM potassium chloride (KCl), 1.0 mM dithiothreitol (DTT), 0.1 mM sodium ortho-vanadate, 1% (v/v) glycerol, 0.01% (w/v) bovine serum albumine (BSA), 0.005% (v/v) Trition X-100 (Sigma), 1× Complete EDTA-free protease inhibitor mixture (Roche)] were added to the compounds in the test plate and the mixture was incubated for 15 min at 22° C. to allow pre-equilibration of the putative enzyme-inhibitor complexes before the start of the kinase reaction, which was initiated by the addition of 3 μl 1.67-fold concentrated solution (in assay buffer) of adenosine-tri-phosphate (ATP, 10 μM final concentration) and peptide substrate (1 μM final concentration). The resulting mixture (5 μl final volume) was incubated at 22° C. during 60 min., and the reaction was stopped by the addition of 5 μl of an aqueous EDTA-solution (50 mM EDTA, in 100 mM HEPES pH 7.5 and 0.2% (w/v) bovine serum albumin) which also contained the TR-FRET detection reagents (0.2 μM streptavidin-XL665 [Cisbio Bioassays, Codolet, France] and 1 nM anti-phosho-Serine antibody [Merck Millipore, cat. #35-002] and 0.4 nM LANCE EU-W1024 labeled anti-mouse IgG antibody [Perkin-Elmer, product no. AD0077, alternatively a Terbium-cryptate-labeled anti-mouse IgG antibody from Cisbio Bioassays can be used]). The stopped reaction mixture was further incubated 1 h at 22° C. in order to allow the formation of complexes between peptides and detection reagents. Subsequently, the amount of product was evaluated by measurement of the resonance energy transfer from the Eu-chelate-antibody complex recognizing the Phosphoserine residue to the streptavidin-XL665 bound to the biotin moiety of the peptide. To this end, the fluorescence emissions at 620 nm and 665 nm after excitation at 330-350 nm were measured in a TR-FRET plate reader, e.g. a Rubystar or Pherastar (both from BMG Labtechnologies, Offenburg, Germany) or a Viewlux (Perkin-Elmer) and the ratio of the emissions (665 nm/622 nm) was taken as indicator for the amount of phosphorylated substrate. The data were normalised using two sets of control wells for high- (=enzyme reaction without inhibitor=0%=Minimum inhibition) and low- (=all assay components without enzyme=100%=Maximum inhibition) Bub1 activity. IC50 values were calculated by fitting the normalized inhibition data to a 4-parameter logistic equation (Minimum, Maximum, IC50, Hill; Y=Max+(Min−Max)/(1+(X/IC50)Hill)).

Chain of catalytic domain of human Bub1 (amino acids 704-1085) (O43683 704-1085): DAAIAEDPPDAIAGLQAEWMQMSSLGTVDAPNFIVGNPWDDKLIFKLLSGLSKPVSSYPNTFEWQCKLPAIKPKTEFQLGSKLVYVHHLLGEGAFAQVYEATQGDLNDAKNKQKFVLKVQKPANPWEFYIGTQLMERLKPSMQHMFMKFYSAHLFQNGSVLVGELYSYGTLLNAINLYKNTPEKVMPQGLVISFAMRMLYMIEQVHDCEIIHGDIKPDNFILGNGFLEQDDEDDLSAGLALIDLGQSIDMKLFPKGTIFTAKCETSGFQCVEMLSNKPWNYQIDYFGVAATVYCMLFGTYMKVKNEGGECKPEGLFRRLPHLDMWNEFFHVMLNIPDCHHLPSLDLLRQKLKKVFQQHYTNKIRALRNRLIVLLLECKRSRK

SMILES | IC50 [nM]
CN1CCc2[nH]c(-c3ccncc3OCC(F)(F)F)c(Nc3ccccc3)c2C1=O [Example 30, 5-methyl-3-(phenylamino)-2-[3-(2,2,2-trifluoroethoxy)pyridin-4-yl]-1,5,6,7-tetrahydro-4H-pyrrolo[3,2-c]pyridin-4-one] | 84.3
CN1CCc2[nH]c(-c3ccncc3OCc3ccccc3)c(Nc3ccccc3)c2C1=O [Example 32, 2-[3-(benzyloxy)pyridin-4-yl]-5-methyl-3-(phenylamino)-1,5,6,7-tetrahydro-4H-pyrrolo[3,2-c]pyridin-4-one] | 41.6
CN1CCc2[nH]c(-c3ccncc3OCCC(F)(F)F)c(Nc3ccccc3)c2C1=O [Example 33, 5-methyl-3-(phenylamino)-2-[3-(3,3,3-trifluoropropoxy)pyridin-4-yl]-1,5,6,7-tetrahydro-4H-pyrrolo[3,2-c]pyridin-4-one] | 51.8
CN1CCc2[nH]c(-c3ccncc3OCCC(C)(C)C)c(Nc3ccccc3)c2C1=O [Example 35, 2-[3-(3,3-dimethylbutoxy)pyridin-4-yl]-5-methyl-3-(phenylamino)-1,5,6,7-tetrahydro-4H-pyrrolo[3,2-c]pyridin-4-one] | 85.9
O=C1NCCc2[nH]c(-c3ccncc3OCC3CC3)c(Nc3ccc(F)c(F)c3)c21 [Example 37, 2-[3-(cyclopropylmethoxy)pyridin-4-yl]-3-[(3,4-difluorophenyl)amino]-1,5,6,7-tetrahydro-4H-pyrrolo[3,2-c]pyridin-4-one] | 59.8
O=C1NCCc2[nH]c(-c3ccncc3OCC3CC3)c(Nc3ccc(F)cc3)c21 [Example 38, 2-[3-(cyclopropylmethoxy)pyridin-4-yl]-3-[(4-fluorophenyl)amino]-1,5,6,7-tetrahydro-4H-pyrrolo[3,2-c]pyridin-4-one] | 56.1
O=C1NCCc2[nH]c(-c3ccncc3OCC(F)F)c(Nc3cccc(F)c3)c21 [Example 41, 2-[3-(2,2-difluoroethoxy)pyridin-4-yl]-3-[(3-fluorophenyl)amino]-1,5,6,7-tetrahydro-4H-pyrrolo[3,2-c]pyridin-4-one] | 36.8
O=C1NCCc2[nH]c(-c3ccncc3OCC(F)F)c(Nc3ccc(F)cc3)c21 [Example 42, 2-[3-(2,2-difluoroethoxy)pyridin-4-yl]-3-[(4-fluorophenyl)amino]-1,5,6,7-tetrahydro-4H-pyrrolo[3,2-c]pyridin-4-one] | 111

Stronger by IC50, values ahead:

IC50 [nM] | SMILES
34.8 | CN1CCc2[nH]c(-c3ccnc4[nH]cnc34)c(Nc3ccccc3)c2C1=O [Example 36, 2-(3H-imidazo[4,5-b]pyridin-7-yl)-5-methyl-3-(phenylamino)-1,5,6,7-tetrahydro-4H-pyrrolo[3,2-c]pyridin-4-one]
28.1 | CN1CCc2[nH]c(-c3ccnc(NC(=O)[C@@H]4C[C@@H]4F)c3)c(Nc3ccccc3)c2C1=O [Example 40, (1S,2S)-2-fluoro-N-{4-[5-methyl-4-oxo-3-(phenylamino)-4,5,6,7-tetrahydro-1H-pyrrolo[3,2-c]pyridin-2-yl]pyridin-2-yl}cyclopropanecarboxamide]
24.1 | O=C1NCCc2[nH]c(-c3ccncc3OCC3CC3)c(Nc3cccc(F)c3)c21 [Example 39, 2-[3-(cyclopropylmethoxy)pyridin-4-yl]-3-[(3-fluorophenyl)amino]-1,5,6,7-tetrahydro-4H-pyrrolo[3,2-c]pyridin-4-one]
22.5 | CN1CCc2[nH]c(-c3ccncc3OC[C@H]3CCOC3)c(Nc3ccccc3)c2C1=O [Example 34, 5-methyl-3-(phenylamino)-2-{3-[(3S)-tetrahydrofuran-3-ylmethoxy]pyridin-4-yl}-1,5,6,7-tetrahydro-4H-pyrrolo[3,2-c]pyridin-4-one]
9.93 | COCCOc1cnccc1-c1[nH]c2c(c1Nc1ccccc1)C(=O)N(C)CC2 [Example 31, 2-[3-(2-methoxyethoxy)pyridin-4-yl]-5-methyl-3-(phenylamino)-1,5,6,7-tetrahydro-4H-pyrrolo[3,2-c]pyridin-4-one]
